Measurements: ChEMBL document CHEMBL1201862, “PubChem BioAssay data set” (2004)
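48-hour exposure; five concentrations; linearly interpolated endpoints. GI50 marks 50% less growth.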 Activity calls are given as the source filed them. No stated cut-off is given here; in the data, active = GI50 up to about 1.1 µM and inactive = higher.

Key:
Assay in all cases: DTP human tumour cell line panel, 48 h
[1] = test system: HL-60
[2] = test system: UACC-257
[3] = test system: ACHN
[4] = test system: SW-620
[5] = test system: HCC 2998
[6] = test system: HCT-116
[7] = test system: EKVX
[8] = test system: SK-MEL-5
[9] = test system: TK-10
[10] = test system: CCRF-CEM
[11] = test system: SF-295
[12] = test system: OVCAR-3
[13] = test system: OVCAR-5
[14] = test system: IGROV-1
[15] = test system: SK-OV-3
[16] = test system: MDA-MB-231
[17] = test system: KM12
[18] = test system: Hs-578T
[19] = test system: SF-539
[20] = test system: CAKI-1

Measured: GI50

C[NH+]1[C@@H](Cc2ccccc2)C(=O)O[B-]1(F)c1ccccc1 (stereo not given in full)
inactive: [1] > 100 µM | [2] > 100 µM | [3] > 100 µM | [4] > 100 µM | [5] > 100 µM | [6] > 100 µM | [7] > 100 µM | [8] > 100 µM | [9] > 100 µM | [10] > 100 µM | [11] > 100 µM | [12] > 100 µM | [13] > 100 µM | [14] > 100 µM | [15] > 100 µM | [16] > 100 µM

CCOC(=O)c1c(N2CCCC2)ncn(-c2ccccc2)c1=S
inactive: [1] > 100 µM | [2] > 100 µM | [17] > 100 µM | [3] > 100 µM | [4] > 100 µM | [5] > 100 µM | [18] > 100 µM | [6] > 100 µM | [7] > 100 µM | [8] > 100 µM | [9] > 100 µM | [10] > 100 µM | [11] > 100 µM | [12] 49.4 µM | [19] > 100 µM | [13] > 100 µM | [14] > 100 µM | [15] > 100 µM

NC(=S)Nc1nc(=S)[nH]c2c1SC1=N/C(=C\c3ccco3)C(=O)N12
inactive: [1] 19.1 µM | [2] > 100 µM | [17] 98.6 µM | [3] > 100 µM | [4] > 100 µM | [18] > 100 µM | [20] > 82.4 µM | [6] > 96.2 µM | [7] 59 µM | [8] > 82.8 µM | [9] > 100 µM | [10] 38.2 µM | [11] > 100 µM | [12] > 89.7 µM | [19] > 77.6 µM | [13] > 100 µM | [14] 45.2 µM | [15] > 100 µM | [16] > 100 µM

CC(C)(C)c1ccc(O)c(CN(Cc2cc(C(C)(C)C)ccc2O)c2ccccc2)c1
inactive: [2] 2.48 µM | [17] 22.2 µM | [3] 16.6 µM | [4] 18.5 µM | [18] 18.6 µM | [20] 31.8 µM | [6] 19.4 µM | [7] 16.5 µM | [8] 15.1 µM | [9] 17.1 µM | [10] 32.4 µM | [11] 17.5 µM | [12] 15.6 µM | [19] 17.6 µM | [13] 16.1 µM | [14] 21.1 µM | [15] 29.4 µM | [16] 16.9 µM

Oc1ccc2ccccc2c1/N=N/c1cc(Cl)ccc1Cl
inactive: [1] 22.6 µM | [2] > 50 µM | [17] 17.7 µM | [3] 11 µM | [4] 32.6 µM | [18] 10.1 µM | [20] 34.4 µM | [6] 15.6 µM | [7] 9.06 µM | [8] 38.5 µM | [9] 16 µM | [10] 17.9 µM | [11] 9.73 µM | [12] 19.5 µM | [13] 11.7 µM | [14] 7.67 µM | [15] 10.8 µM | [16] 11.8 µM

CC[C@H](CO)Nc1nc(NCc2ccccc2)c2ncn(C(C)C)c2n1 [SELICICLIB]
inactive: [1] 21.7 µM | [17] 5.26 µM | [3] 12.8 µM | [4] 82.4 µM | [5] 32.2 µM | [20] 6.17 µM | [6] 5.09 µM | [7] 19.1 µM | [8] 10.7 µM | [9] 64.1 µM | [10] > 100 µM | [11] 25.5 µM | [12] 11.5 µM | [19] 15.8 µM | [13] 42.8 µM | [14] 5.78 µM | [15] 86.3 µM | [16] 39.7 µM

Cc1ccc(/C=N/n2c(=O)[nH]c3ccccc3c2=O)cc1
inactive: [1] > 100 µM | [2] > 100 µM | [17] > 100 µM | [3] > 100 µM | [4] > 100 µM | [18] > 100 µM | [20] > 100 µM | [6] > 100 µM | [7] > 100 µM | [8] > 100 µM | [9] > 100 µM | [10] > 100 µM | [11] > 100 µM | [12] > 100 µM | [19] > 100 µM | [13] > 100 µM | [14] > 100 µM | [15] > 100 µM | [16] > 100 µM

O=C(O)c1cscc1Cc1cccs1
inactive: [1] > 100 µM | [2] > 100 µM | [17] > 100 µM | [3] > 100 µM | [4] > 100 µM | [18] > 100 µM | [20] > 100 µM | [6] > 100 µM | [7] > 100 µM | [8] > 100 µM | [9] > 100 µM | [10] > 100 µM | [11] > 100 µM | [12] > 100 µM | [19] > 100 µM | [13] > 100 µM | [14] > 100 µM | [15] > 100 µM | [16] > 100 µM

COc1ccc(-c2nc(O)c3ccccc3n2)cc1
inactive: [1] > 100 µM | [2] > 100 µM | [17] > 100 µM | [3] > 10 µM | [4] > 100 µM | [18] 2.44 µM | [20] 76.6 µM | [6] 77.1 µM | [7] > 100 µM | [8] > 100 µM | [9] > 100 µM | [10] > 100 µM | [11] > 100 µM | [12] > 100 µM | [19] 45.9 µM | [13] > 100 µM | [14] 29.1 µM | [15] > 100 µM | [16] 40.8 µM

O=C1/C(=C/c2cccs2)NC(=S)N1CN1CCCC(CO)C1 (stereo not given)
inactive: [2] > 100 µM | [17] > 100 µM | [3] > 100 µM | [4] > 100 µM | [18] > 100 µM | [6] > 100 µM | [7] > 100 µM | [8] > 100 µM | [9] > 100 µM | [10] > 100 µM | [11] 91.4 µM | [12] > 100 µM | [13] > 100 µM | [14] > 100 µM | [15] > 100 µM | [16] > 100 µM

CCN1C[C@]2(C)CC[C@H](OC)C34C5C[C@@H]6[C@@H](OC)C[C@@](OC)(C5[C@H]6OCc5ccccc5)C(C13)[C@H](OC(C)=O)[C@@H]42 (stereo not given in full)
inactive: [1] 6.95 µM | [2] 45.8 µM | [17] > 100 µM | [3] > 100 µM | [4] > 100 µM | [18] > 100 µM | [6] > 100 µM | [7] > 100 µM | [8] > 100 µM | [9] > 100 µM | [10] > 100 µM | [11] > 100 µM | [12] 64.3 µM | [19] > 100 µM | [13] > 100 µM | [14] > 100 µM | [15] > 100 µM | [16] > 100 µM

CC1=C(CCC(C)CO)O[C@H]2C[C@H]3[C@@H]4CC[C@H]5C[C@@H](O)CC[C@]5(C)[C@H]4CC(=O)[C@]3(C)[C@@H]12 (stereo not given in full)
inactive: [1] 2.94 µM | [2] 14.8 µM | [17] 11.3 µM | [3] 17.5 µM | [4] 35.6 µM | [18] 17.1 µM | [20] 27.7 µM | [6] 17.5 µM | [7] 29.9 µM | [8] 8.18 µM | [9] 19.8 µM | [10] 4.89 µM | [11] 1.27 µM | [12] 4.94 µM | [19] 19.2 µM | [13] 27.4 µM | [14] 12.6 µM | [16] 18.1 µM
active: [15] 0.442 µM

Cc1ccc(SCN2CCCCC2)cc1.O=C(Cl)c1ccc([N+](=O)[O-])cc1
inactive: [1] 1.67 µM | [2] 14.6 µM | [17] 10.8 µM | [3] 12.6 µM | [4] 18.5 µM | [18] 10.4 µM | [20] 8.87 µM | [6] 10.9 µM | [7] 11.8 µM | [8] 2.78 µM | [9] 19.4 µM | [10] 2.03 µM | [11] 16 µM | [12] 12.9 µM | [13] 10.7 µM | [14] 3.3 µM | [15] 12.9 µM | [16] 13.2 µM

O=C1/C(=C/c2n[nH]cc2-c2ccc(Cl)cc2)C(=O)N(c2ccccc2)C1c1ccccc1 (stereo not given)
inactive: [1] 12.9 µM | [2] 19.7 µM | [17] 20.9 µM | [3] 20.1 µM | [4] 18.3 µM | [18] 9.4 µM | [20] 10.1 µM | [6] 12.5 µM | [7] 20.7 µM | [8] 13.8 µM | [9] 27.5 µM | [10] 17.6 µM | [11] 18.4 µM | [12] 6.28 µM | [19] 22.3 µM | [14] 16.6 µM | [15] 15.5 µM | [16] 18.9 µM

NC12c3c4cccc3Oc3cccc(c31)Oc1cccc(c12)O4
inactive: [1] 18.2 µM | [2] > 50 µM | [17] > 50 µM | [3] > 50 µM | [4] > 50 µM | [18] 31.3 µM | [20] > 50 µM | [6] > 50 µM | [7] > 50 µM | [10] > 50 µM | [11] > 50 µM | [12] > 50 µM | [19] > 50 µM | [13] > 50 µM | [14] > 50 µM | [15] > 50 µM | [16] > 50 µM
